The text below walks through data of patent US11028090B2 (Dong Wha Pharm. Co., Ltd., priority 2017, dated 2021).

Where two headings read alike, the source gives them in different places.

Experiment [1] has as its target BRD4 (BD1+BD2) bromodomain (Homo sapiens (Human), UniProt O60885). Description: BRD4 binding inhibition (AlphaScreen, GST-BRD4 vs tetraacetylated histone H4 peptide). The gist of the method: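 GST-BRD4 (BD1+BD2) and biotinylated tetraacetyl-histone H4 peptide, each at 100 nM in HEPES pH 7.4 buffer with BSA and DTT, were combined with compound. Glutathione acceptor and streptavidin donor beads were added, then incubated 30 min at room temperature in the dark. Read-out was AlphaScreen signal.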
A general note: Alpha assays give light when donor and acceptor beads are brought close together.

The subject of experiment [2] is acute myelogenous leukemia cells (MV-4-11 cells). Description: Cytotoxicity to acute myelogenous leukemia cells (MV-4-11 cells), CCK-8. The settings on record: Homo sapiens, MV4-11, 72 h.
Setting [3] is: GST-BRD4 (BD1+BD2) vs biotinylated acetyl-histone H4 peptide, AlphaScreen, read-out: BRD4 IC50.
The mark [4] stands for this setting: read-out: IC50, cytotoxicity against acute myelogenous leukemia cells.
Where [5] appears, read: read-out: MV-4-11 Cytotoxicity IC50.
Where [6] appears, read: GST-BRD4 (BD1+BD2) / biotinylated acetyl-histone H4 (Lys5,8,12,16) peptide, read-out: IC50, BRD4 binding inhibition.

In the case of `Cc1nnc2c(NCCCCNC(=O)CC(C)C)nc3cc(OCc4ccc(-c5nnn(C)n5)cc4)ccc3n12` [Example 349, 3-methyl-N-(4-{1-methyl-7-[4-(2-methyl-2H-tetrazolo-5-yl)-benzyloxy]-[1,2,4]triazolo[4,3-a]quinoxaline-4-ylamino}-butyl)-butyramide], the concentration for half-maximal inhibition (IC50) (as a rule, the midpoint of a concentration-inhibition curve) in experiment [1] (setting [3]) is 55 nM; in experiment [2] (setting [4]), at most 200 nM; in experiment [2] (setting [5]), 160 nM.

In the case of `CSc1ccc2c(c1)nc(NCCCCNC(=O)OC(C)(C)C)c1nnc(C)n12` [Example 354, [4-(1-methyl-7-methylsulfanyl-[1,2,4]triazolo[4,3-a]quinoxaline-4-ylamino)-butyl]-carbamic acid-tert-butylester], the IC50 in experiment [1] (setting [3]) is 56 nM; in experiment [2] (setting [5]), 472 nM.

Consider `CSc1ccc2c(c1)nc(NCCCCNC(=O)[C@@H](F)C(C)C)c1nnc(C)n12` [Example 357, 2-(S)-fluoro-3-methyl-N-[4-(1-methyl-7-methylsulfanyl-[1,2,4]triazolo[4,3-a]quinoxaline-4-ylamino)-butyl]-butyramide], for which the IC50 in experiment [1] (setting [3]) was 62 nM; in experiment [2] (setting [4]), at most 200 nM; in experiment [2] (setting [5]) it was 44 nM.

As to `CSc1ccc2c(c1)nc(NCCCCNC(=O)[C@@H](O)C(C)C)c1nnc(C)n12` [Example 358, 2-(S)-hydroxy-3-methyl-N-[4-(1-methyl-7-methylsulfanyl-[1,2,4]triazolo[4,3-a]quinoxaline-4-ylamino)-butyl]-butyramide], the IC50 in experiment [1] (setting [6]) was at most 10 nM; in experiment [1] (setting [3]), 7 nM; in experiment [2] (setting [5]) it was 160 nM.

With `COCCOc1ccc2c(c1)nc(NCCCCNC(=O)CC(C)C)c1nnc(C)n12` [Example 365, N-{4-[7-(2-methoxy-ethoxy)-1-methyl-[1,2,4]triazolo[4,3-a]quinoxaline-4-ylamino]-butyl}-3-methyl-butyramide], the IC50 in experiment [1] (setting [6]) is at most 50 nM; in experiment [1] (setting [3]), 13 nM; in experiment [2] (setting [4]), at most 200 nM; in experiment [2] (setting [5]), 60 nM.

On to `COCCOc1ccc2c(c1)nc(NCCCCNC(=O)OC(C)C)c1nnc(C)n12` [Example 366, {4-[7-(2-methoxy-ethoxy)-1-methyl-[1,2,4]triazolo[4,3-a]quinoxaline-4-ylamino]-butyl}-carbamic acid isopropylester], for which the IC50 in experiment [1] (setting [6]) is at most 50 nM; in experiment [1] (setting [3]), 16 nM; in experiment [2] (setting [4]), at most 200 nM; in experiment [2] (setting [5]) it was 110 nM.

As for `CCCOC(=O)NCCCCNc1nc2cc(OCCOC)ccc2n2c(C)nnc12` [Example 367, {4-[7-(2-methoxy-ethoxy)-1-methyl-[1,2,4]triazolo[4,3-a]quinoxaline-4-ylamino]-butyl}-carbamic acid propylester], the IC50 in experiment [1] (setting [6]) was at most 10 nM; in experiment [1] (setting [3]) it was 5 nM; in experiment [2] (setting [5]), 350 nM.

Take `CCC(C)OC(=O)NCCCCNc1nc2cc(OCCOC)ccc2n2c(C)nnc12` (stereo not drawn) [Example 368, {4-[7-(2-methoxy-ethoxy)-1-methyl-[1,2,4]triazolo[4,3-a]quinoxaline-4-ylamino]-butyl}-carbamic acid-sec-butylester]: the IC50 in experiment [1] (setting [6]) is at most 10 nM; in experiment [1] (setting [3]) it was 10 nM; in experiment [2] (setting [4]) it was at most 200 nM; in experiment [2] (setting [5]), 140 nM.

As to `COCCOc1ccc2c(c1)nc(NCCCCNC(=O)OCC(C)C)c1nnc(C)n12` [Example 369, {4-[7-(2-methoxy-ethoxy)-1-methyl-[1,2,4]triazolo[4,3-a]quinoxaline-4-ylamino]-butyl}-carbamic acid isobutylester], the IC50 is at most 50 nM in experiment [1] (setting [6]), 14 nM in experiment [1] (setting [3]), at most 200 nM in experiment [2] (setting [4]) and 130 nM in experiment [2] (setting [5]).

Take `C=CCOC(=O)NCCCCNc1nc2cc(OCCOC)ccc2n2c(C)nnc12` [Example 370, {4-[7-(2-methoxy-ethoxy)-1-methyl-[1,2,4]triazolo[4,3-a]quinoxaline-4-ylamino]-butyl}-carbamic acid allylester]: the figures for the IC50 in experiment [1] (setting [6]), in experiment [1] (setting [3]) and in experiment [2] (setting [5]) were at most 50 nM, 14 nM and 240 nM, respectively.

With `COCCOc1ccc2c(c1)nc(NCCCCNC(=O)OC1CCCC1)c1nnc(C)n12` [Example 371, {4-[7-(2-methoxy-ethoxy)-1-methyl-[1,2,4]triazolo[4,3-a]quinoxaline-4-ylamino]-butyl}-carbamic acid cyclopentylester], the IC50 in experiment [1] (setting [6]) is at most 10 nM; in experiment [1] (setting [3]) it was 7 nM; in experiment [2] (setting [4]), at most 200 nM; in experiment [2] (setting [5]), 119 nM.

As for `COCCOc1ccc2c(c1)nc(NCCCCNC(=O)Oc1ccccc1)c1nnc(C)n12` [Example 372, {4-[7-(2-methoxy-ethoxy)-1-methyl-[1,2,4]triazolo[4,3-a]quinoxaline-4-ylamino]-butyl}-carbamic acid phenylester], the IC50 is at most 10 nM in experiment [1] (IC50, BRD4 binding inhibition, GST-BRD4 (BD1+BD2) / biotinylated acetyl-histone H4 (Lys5,8,12,16) peptide); at most 200 nM in experiment [2] (setting [4]); 180 nM in experiment [2] (setting [5]).

On to `COCCOc1ccc2c(c1)nc(NCCCCNC(=O)OCc1ccccc1)c1nnc(C)n12` [Example 373, {4-[7-(2-methoxy-ethoxy)-1-methyl-[1,2,4]triazolo[4,3-a]quinoxaline-4-ylamino]-butyl}-carbamic acid benzylester], for which the IC50 was at most 50 nM in experiment [1] (setting [6]), 20 nM in experiment [1] (setting [3]) and 420 nM in experiment [2] (setting [5]).

For the compound `COCCOc1ccc2c(c1)nc(NCCCCNC(=O)C(C)(C)C)c1nnc(C)n12` [Example 375, {4-[7-(2-methoxy-ethoxy)-1-methyl-[1,2,4]triazolo[4,3-a]quinoxaline-4-ylamino]-butyl}-2,2-dimethyl-propionamide], the 50% inhibitory concentration (IC50) was at most 50 nM in experiment [1] (setting [6]) and 400 nM in experiment [2] (setting [5]).

Regarding `COCCOc1ccc2c(c1)nc(NCCCCNC(=O)C=C(C)C)c1nnc(C)n12` [Example 378, 3-methyl-butene-2-oic acid-{4-[7-(2-methoxy-ethoxy)-1-methyl-[1,2,4]triazolo[4,3-a]quinoxaline-4-ylamino]-butyl}-amide], the figures for the IC50 in experiment [1] (setting [6]), in experiment [1] (setting [3]) and in experiment [2] (setting [5]) were at most 50 nM, 14 nM and 290 nM, respectively.

Regarding `C/C=C/C(=O)NCCCCNc1nc2cc(OCCOC)ccc2n2c(C)nnc12` [Example 379, butene-2-oic acid{4-[7-(2-methoxy-ethoxy)-1-methyl-[1,2,4]triazolo[4,3-a]quinoxaline-4-ylamino]-butyl}-amide], the results for the IC50 in experiment [1] (setting [6]), in experiment [1] (setting [3]) and in experiment [2] (setting [5]) were at most 50 nM, 17 nM and 420 nM, respectively.

With `CCC(C)C(=O)NCCCCNc1nc2cc(OCCOC)ccc2n2c(C)nnc12` (stereo not drawn) [Example 380, N-{4-[7-(2-methoxy-ethoxy)-1-methyl-[1,2,4]triazolo[4,3-a]quinoxaline-4-ylamino]-butyl}-2-methyl-butyramide], the IC50 in experiment [1] (setting [6]) is at most 50 nM; in experiment [1] (setting [3]) it was 13 nM; in experiment [2] (setting [5]) it was 610 nM.

As for `CCC(CC)C(=O)NCCCCNc1nc2cc(OCCOC)ccc2n2c(C)nnc12` [Example 381, 2-ethyl-N-{4-[7-(2-methoxy-ethoxy)-1-methyl-[1,2,4]triazolo[4,3-a]quinoxaline-4-ylamino]-butyl}-butyramide], the IC50 in experiment [1] (setting [6]) was at most 50 nM; in experiment [1] (setting [3]), 14 nM; in experiment [2] (setting [4]), at most 200 nM; in experiment [2] (setting [5]) it was 200 nM.

In the case of `COCCOc1ccc2c(c1)nc(NCCCCNC(=O)CC(C)(C)C)c1nnc(C)n12` [Example 382, N-{4-[7-(2-methoxy-ethoxy)-1-methyl-[1,2,4]triazolo[4,3-a]quinoxaline-4-ylamino]-butyl}-3,3-dimethyl-butyramide], the 50% inhibitory concentration (IC50) is at most 10 nM in experiment [1] (setting [6]), 5 nM in experiment [1] (setting [3]) and 840 nM in experiment [2] (setting [5]).

In the case of `COCCOc1ccc2c(c1)nc(NCCCCNC(=O)CCC(C)C)c1nnc(C)n12` [Example 383, 4-methyl-pentanoic acid{4-[7-(2-methoxy-ethoxy)-1-methyl-[1,2,4]triazolo[4,3-a]quinoxaline-4-ylamino]-butyl}-amide], the IC50 in experiment [1] (setting [6]) was at most 10 nM; in experiment [1] (setting [3]) it was 3 nM; in experiment [2] (setting [4]), at most 200 nM; in experiment [2] (setting [5]), 73 nM.

In the case of `COCCOc1ccc2c(c1)nc(NCCCCNC(=O)[C@H](O)C(C)C)c1nnc(C)n12` [Example 388, 2-(R)-hydroxy-N-{4-[7-(2-methoxy-ethoxy)-1-methyl-[1,2,4]triazolo[4,3-a]quinoxaline-4-ylamino]-butyl}-3-methyl-butyramide], the IC50 was at most 10 nM in experiment [1] (setting [6]), 6 nM in experiment [1] (setting [3]), at most 200 nM in experiment [2] (setting [4]) and 55 nM in experiment [2] (setting [5]).

Consider `COCCOc1ccc2c(c1)nc(NCCCCNC(=O)[C@@H](O)C(C)C)c1nnc(C)n12` [Example 389, 2-(S)-hydroxy-N-{4-[7-(2-methoxy-ethoxy)-1-methyl-[1,2,4]triazolo[4,3-a]quinoxaline-4-ylamino]-butyl}-3-methyl-butyramide], for which the IC50 is at most 10 nM in experiment [1] (setting [6]), 2 nM in experiment [1] (setting [3]), at most 200 nM in experiment [2] (setting [4]) and 79 nM in experiment [2] (setting [5]).

Regarding `CCC(F)(F)C(=O)NCCCCNc1nc2cc(OCCOC)ccc2n2c(C)nnc12` [Example 391, 2,2-difluoro-N-{4-[7-(2-methoxy-ethoxy)-1-methyl-[1,2,4]triazolo[4,3-a]quinoxaline-4-ylamino]-butyl}-butyramide], the IC50 in experiment [1] (setting [6]) was at most 10 nM; in experiment [1] (setting [3]), 5 nM; in experiment [2] (setting [4]) it was at most 200 nM; in experiment [2] (setting [5]) it was 200 nM.

Take `COCCOc1ccc2c(c1)nc(NCCCCNC(=O)CCC1CCCC1)c1nnc(C)n12` [Example 393, 3-cyclopentyl-N-{4-[7-(2-methoxy-ethoxy)-1-methyl-[1,2,4]triazolo[4,3-a]quinoxaline-4-ylamino]-butyl}-propionamide]: the IC50 in experiment [1] (setting [6]) was at most 10 nM; in experiment [1] (setting [3]), 3 nM; in experiment [2] (setting [4]), at most 200 nM; in experiment [2] (setting [5]), 170 nM.
